Read-outs that look alike come from different tables or passages of the source.
Columns and labels:
ITK = molecular target: T1, ITK (Homo sapiens, UniProt Q08881); assay: ITK degradation HiBiT assay; type: cell-based; parameters: expressed in transfected cells; host or cells: Molt4 (ATCC CRL-1552), monoclonal clone 1C10, engineered to carry the HiBiT tag; conditions: 4 hrs; for DC50: C-terminal HiBiT-tagged Molt4 cells; for Dmax: MOLT-4, C-terminal HiBiT-tagged Molt4 cells
T1 sequence (Q08881 1-620): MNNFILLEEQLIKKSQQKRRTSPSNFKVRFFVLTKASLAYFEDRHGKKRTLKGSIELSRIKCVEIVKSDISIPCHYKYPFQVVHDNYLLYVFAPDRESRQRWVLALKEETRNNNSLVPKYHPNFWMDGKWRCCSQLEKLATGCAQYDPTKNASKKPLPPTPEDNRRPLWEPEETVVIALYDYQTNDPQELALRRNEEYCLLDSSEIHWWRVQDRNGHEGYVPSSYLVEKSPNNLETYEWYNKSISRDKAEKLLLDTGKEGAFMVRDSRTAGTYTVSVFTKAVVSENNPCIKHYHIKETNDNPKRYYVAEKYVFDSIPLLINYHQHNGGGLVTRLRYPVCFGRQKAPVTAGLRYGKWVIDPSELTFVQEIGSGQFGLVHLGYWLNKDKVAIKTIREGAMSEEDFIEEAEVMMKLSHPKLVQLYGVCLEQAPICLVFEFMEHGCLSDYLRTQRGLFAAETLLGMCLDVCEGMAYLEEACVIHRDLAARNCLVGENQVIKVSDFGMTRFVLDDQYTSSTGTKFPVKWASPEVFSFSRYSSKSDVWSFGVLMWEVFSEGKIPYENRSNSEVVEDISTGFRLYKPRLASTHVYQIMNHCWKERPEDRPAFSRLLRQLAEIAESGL
Outline: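 C-terminal HiBiT-tagged Molt4 cells (clone 1C10) treated 4 h at 32° C with an 11-point, 5-fold compound dilution series (0.5% DMSO). HiBiT lytic detection with LgBiT then luminescence read; % ITK remaining versus concentration fit by four-parameter variable-slope model to give DC50 and Dmax.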

[1] = Mouse PK analysis (blood/plasma concentration after oral administration); type: in vivo; conditions: mouse, mice
Outline: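 Mice were dosed by oral gavage at 90 mg/kg with blood sampled at 1, 2 and 6 h; a second study used oral dosing with plasma taken at 6 or 24 h. Plasma levels were measured by LC/MS/MS (acetonitrile precipitation, internal-standard curve, positive ESI MRM), and Cmax, Tmax and AUClast were derived by noncompartmental analysis.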

[2] = plasma, oral, 90 mg/kg, 1 h, read-out: Cal. Conc. Total (μM) 1 h
[3] = plasma, oral, 90 mg/kg, 2 h, read-out: Cal. Conc. Total (μM) 2 h
[4] = plasma, oral, 90 mg/kg, 6 h, read-out: Cal. Conc. Total (μM) 6 h

DC50 (ITK) [nM]	Dmax (ITK) [%]	AUC(0-t) ([1]; oral, plasma) [µM·h]	Cmax ([1]; oral, plasma) [nM]	Tmax ([1]; oral, plasma) [h]	concentration at 1 h [1, 2] [µM]	concentration at 2 h [1, 3] [µM]	concentration at 6 h [1, 4] [µM]	concentration at 1 h ([1]; 90 mg/kg PO, blood, timepoint 1 h, read-out: Concentration (μM), mean calculated) [µM]	concentration at 2 h ([1]; 90 mg/kg PO, blood, timepoint 2 h, read-out: Concentration (μM), mean calculated) [µM]	concentration at 6 h ([1]; 90 mg/kg PO, blood, timepoint 6 h, read-out: Concentration (μM), mean calculated) [µM]	SMILES
0.29	76	1.99	471	4	–	–	–	0.228	0.702	2.71	C[C@@H](C(=O)N(C)c1ccc2cc(-c3n[nH]c4c3CCC(C)(C)C4)[nH]c2c1)N1CCN(CC2CCN(c3cccc4c3n(C)c(=O)n4C3CCC(=O)NC3=O)CC2)CC1 (stereo partly drawn) [Compound 3, (2S)—N-(2-(6,6-dimethyl-4,5,6,7-tetrahydro-1H-indazol-3-yl)-1H-indol-6-yl)-2-(4-((1-(1-(2,6-dioxopiperidin-3-yl)-3-methyl-2-oxo-2,3-dihydro-1H-benzo[d]imidazol-4-yl)piperidin-4-yl)methyl)piperazin-1-yl)-N-methylpropanamide]
2.3	64	0.54	127	2	–	–	–	–	–	–	C[C@@H](C(=O)N(C)c1ccc2cc(-c3n[nH]c4c3CCC(C)(C)C4)[nH]c2c1)N1CCN(C[C@@H]2CCN(c3ccc4c(c3)n(C)c(=O)n4C3CCC(=O)NC3=O)C2)CC1 (stereo partly drawn) [Compound 4, (2S)—N-(2-(6,6-dimethyl-4,5,6,7-tetrahydro-1H-indazol-3-yl)-1H-indol-6-yl)-2-(4-(((3S)-1-(1-(2,6-dioxopiperidin-3-yl)-3-methyl-2-oxo-2,3-dihydro-1H-benzo[d]imidazol-5-yl)pyrrolidin-3-yl)methyl)piperazin-1-yl)-N-methylpropanamide]
–	–	–	–	–	–	0.155	0.053	–	–	–	CN(C(=O)C1CN(C2CCN(c3ccc4c(c3)C(=O)N(C3CCC(=O)NC3=O)C4=O)CC2)C1)c1ccc2cc(-c3n[nH]c4c3CCC(C)(C)C4)[nH]c2c1 (stereo not drawn) [Compound 35, N-(2-(6,6-dimethyl-4,5,6,7-tetrahydro-1H-indazol-3-yl)-1H-indol-6-yl)-1-(1-(2-(2,6-dioxopiperidin-3-yl)-1,3-dioxoisoindolin-5-yl)piperidin-4-yl)-N-methylazetidine-3-carboxamide]

More lines, now with the values behind:

SMILES	DC50 (ITK) [nM]	Dmax (ITK) [%]	AUC(0-t) ([1]; oral, plasma) [µM·h]	Cmax ([1]; oral, plasma) [nM]	Tmax ([1]; oral, plasma) [h]	concentration at 1 h [1, 2] [µM]	concentration at 2 h [1, 3] [µM]	concentration at 6 h [1, 4] [µM]	concentration at 1 h ([1]; 90 mg/kg PO, blood, timepoint 1 h, read-out: Concentration (μM), mean calculated) [µM]	concentration at 2 h ([1]; 90 mg/kg PO, blood, timepoint 2 h, read-out: Concentration (μM), mean calculated) [µM]	concentration at 6 h ([1]; 90 mg/kg PO, blood, timepoint 6 h, read-out: Concentration (μM), mean calculated) [µM]
CN(c1ccc2cc(-c3n[nH]c4c3C[C@@H]3C(F)(F)[C@]3(C)C4)[nH]c2c1)C(=O)[C@H]1C[C@]2(CCN(c3ccc4c(c3)C(=O)N([C@H]3CCC(=O)NC3=O)C4=O)C2)C1 (racemic) [Compound 71b, (2s,4s)-N-[2-[(4aS,5aR)-5,5-difluoro-5a-methyl-1H,4H,4aH,6H-cyclopropa[f]indazol-3-yl]-1H-indol-6-yl]-6-[2-[(3RS)-2,6-dioxopiperidin-3-yl]-1,3-dioxoisoindol-5-yl]-N-methyl-6-azaspiro[3.4]octane-2-carboxamide]	2	85	0.78	223	1.5	–	–	–	–	–	–
CN(C(=O)CCC1CCN(c2ccc3c(c2)C(=O)N(C2CCC(=O)NC2=O)C3=O)C1)c1ccc2cc(-c3n[nH]c4c3CCC(C)(C)C4)[nH]c2c1 (stereo not drawn) [Compound 1, N-(2-(6,6-dimethyl-4,5,6,7-tetrahydro-1H-indazol-3-yl)-1H-indol-6-yl)-3-(1-(2-(2,6-dioxopiperidin-3-yl)-1,3-dioxoisoindolin-5-yl)pyrrolidin-3-yl)-N-methylpropanamide]	10.4	88	–	–	–	1.6	1.7	0.7	–	–	–
CN(C(=O)CCN1CCN(c2ccc3c(c2)C(=O)N(C2CCC(=O)NC2=O)C3=O)CC1)c1ccc2cc(-c3n[nH]c4c3CCC(C)(C)C4)[nH]c2c1 (stereo not drawn) [Compound 2, N-(2-(6,6-dimethyl-4,5,6,7-tetrahydro-1H-indazol-3-yl)-1H-indol-6-yl)-3-(4-(2-(2,6-dioxopiperidin-3-yl)-1,3-dioxoisoindolin-5-yl)piperazin-1-yl)-N-methylpropanamide]	4.4	90	–	–	–	0.041	0.039	0.059	–	–	–

Reference: patent US20240279202A1 (NURIX THERAPEUTICS, INC., priority 2021, published 2024)
